According to the supplement of paper PMC10307832:

Assays:
Assay in all cases: relative viability (nuclei count vs DMSO), 5 days (fraction); higher = more cells survive
AZ505 + Crizotinib = compound: C1CCC(CC1)N(CCNCCC2=C3C(=C(C=C2)O)NC(=O)CO3)C(=O)CCNCCC4=CC(=C(C=C4)Cl)Cl [AZ505] + C[C@@H](Oc1cc(-c2cnn(C3CCNCC3)c2)cnc1N)c1c(Cl)ccc(F)c1Cl [Crizotinib] (partner 1 µM)
Procedure, shortened: (§1)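 Lung cancer cell lines in 1536-well plates were dosed by pin tool the day after seeding, either with one drug alone or with a fixed anchor-drug dose plus five library-drug doses (not always all listed) in √10 steps. After 5 days, cells were fixed and their nuclei stained in one step (final 0.05% Triton X-100, 1% formaldehyde, 1 ug/ml Hoechst), then counted on 4× images. Relative viability is the nuclei count in treated wells divided by that in vehicle wells. Values are medians of duplicate plates.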

AZ505 + Pemetrexed = compound: C1CCC(CC1)N(CCNCCC2=C3C(=C(C=C2)O)NC(=O)CO3)C(=O)CCNCCC4=CC(=C(C=C4)Cl)Cl [AZ505] + Nc1nc2[nH]cc(CCc3ccc(C(=O)N[C@@H](CCC(=O)O)C(=O)O)cc3)c2c(=O)[nH]1 [Pemetrexed] (partner 0.2 µM)
Procedure, shortened: as §1

Dactolisib + OSI-027 = compound: Cn1c(=O)n(-c2ccc(C(C)(C)C#N)cc2)c2c3cc(-c4cnc5ccccc5c4)ccc3ncc21 [Dactolisib] + COc1cccc2cc(-c3nc([C@H]4CC[C@H](C(=O)O)CC4)n4ncnc(N)c34)[nH]c12 [OSI-027] (partner 0.5 µM)
Procedure, shortened: as §1

AZ505 + Luminespib = compound: C1CCC(CC1)N(CCNCCC2=C3C(=C(C=C2)O)NC(=O)CO3)C(=O)CCNCCC4=CC(=C(C=C4)Cl)Cl [AZ505] + CCNC(=O)c1noc(-c2cc(C(C)C)c(O)cc2O)c1-c1ccc(CN2CCOCC2)cc1 [Luminespib] (partner 0.01 µM)
Procedure, shortened: as §1

Cell Line	relative viability (AZ505 + Crizotinib; first compound 0.08 µM)	relative viability (AZ505 + Crizotinib; first compound 0.253 µM)	relative viability (AZ505 + Crizotinib; first compound 0.8 µM)	relative viability (AZ505 + Crizotinib; first compound 2.53 µM)	relative viability (AZ505 + Crizotinib; first compound 8 µM)	relative viability (AZ505 + Pemetrexed; first compound 0.08 µM)	relative viability (AZ505 + Pemetrexed; first compound 0.253 µM)	relative viability (AZ505 + Pemetrexed; first compound 0.8 µM)	relative viability (AZ505 + Pemetrexed; first compound 2.53 µM)	relative viability (AZ505 + Pemetrexed; first compound 8 µM)	relative viability (Dactolisib + OSI-027; first compound 0.002 µM)	relative viability (Dactolisib + OSI-027; first compound 0.006325 µM)	relative viability (Dactolisib + OSI-027; first compound 0.02 µM)	relative viability (Dactolisib + OSI-027; first compound 0.06325 µM)	relative viability (Dactolisib + OSI-027; first compound 0.2 µM)	relative viability (AZ505 + Luminespib; first compound 0.08 µM)	relative viability (AZ505 + Luminespib; first compound 0.253 µM)	relative viability (AZ505 + Luminespib; first compound 0.8 µM)	relative viability (AZ505 + Luminespib; first compound 2.53 µM)	relative viability (AZ505 + Luminespib; first compound 8 µM)
HOP-62	0.849	0.853	1.03	0.964	0.88	0.325	0.443	0.327	0.393	0.379	0.986	0.881	0.728	0.611	0.492	0.864	0.883	0.824	0.884	1
NCI-H2126	0.98	1.05	0.982	1.03	1.08	0.58	0.628	0.719	0.713	0.629	0.92	0.733	0.687	0.618	0.458	0.771	0.889	0.903	0.943	1.02
NCI-H358	0.566	0.572	0.551	0.536	0.371	0.177	0.227	0.158	0.179	0.184	0.805	0.683	0.585	0.254	0.173	0.22	0.306	0.402	–	0.584
EPLC-272H	0.714	0.865	0.927	0.985	0.934	0.246	0.318	0.254	0.245	0.232	0.34	0.288	0.356	0.334	0.3	–	0.161	0.373	0.25	0.301
PC-3 [JPC-3]	0.885	0.979	0.916	0.94	1.03	0.97	–	1.18	1.09	1.27	0.862	0.86	0.72	0.851	0.768	0.65	0.697	0.661	0.635	0.739
NCI-H650	0.604	0.749	0.698	0.642	0.758	0.86	0.875	1.01	1.12	0.881	0.509	0.518	0.641	0.592	0.372	0.726	0.777	0.835	0.774	0.709
NCI-H838	0.773	0.841	0.809	0.824	0.743	0.251	0.253	0.252	0.246	0.221	0.424	0.477	0.317	0.252	0.274	0.413	0.251	0.253	0.287	0.424
COR-L 105	0.579	0.964	0.75	0.963	0.793	0.979	1.05	1.06	1.1	1.14	0.776	0.619	0.478	0.385	0.314	0.739	0.707	0.765	0.831	0.905
NCI-H2405	0.634	0.596	0.586	0.565	0.63	0.715	–	0.841	0.882	0.97	0.67	0.652	0.685	0.543	0.464	0.598	0.474	0.586	0.597	0.474
NCI-H661	–	0.941	–	0.977	0.942	0.834	0.928	0.865	0.931	0.928	0.701	0.759	0.652	0.366	0.339	0.879	0.928	0.909	0.914	0.928
NCI-H1915	0.881	0.948	0.887	0.827	0.969	0.541	0.492	0.534	0.614	0.525	0.723	0.704	0.716	0.535	0.418	0.769	0.928	0.75	0.783	0.986
CAL-12T	0.599	0.753	0.535	0.684	0.563	1.08	1.2	1.26	1.29	1.46	0.894	0.635	0.521	0.318	0.239	0.341	0.596	0.265	0.377	0.64
SK-LU-1	0.608	0.731	0.649	0.664	0.714	0.671	0.72	0.684	0.799	0.757	0.277	0.42	0.362	0.283	0.226	0.201	0.203	0.18	0.18	0.176
LXF-289	0.738	–	0.812	0.788	0.762	0.84	0.92	0.785	0.932	0.903	0.93	0.865	0.821	0.692	0.684	0.663	0.685	0.668	0.73	0.818
NCI-H460	0.78	1.08	0.898	0.784	0.782	0.063	0.0565	0.0644	0.0703	0.0621	0.829	0.661	0.615	0.119	0.153	0.0296	0.0436	0.0262	0.0334	0.0373
NCI-H1944	1.12	1.04	1.11	0.881	1.15	0.748	0.558	0.796	0.499	0.597	0.467	0.418	0.418	0.281	0.195	0.827	0.715	0.77	0.707	0.738
